Data from paper PMC12679539, “Synthesis and evaluation of nitroheterocyclic aromatic adamantane amides with trypanocidal activity. Part II” (RSC Medicinal Chemistry, 2025).

experiment: Cytotoxicity on THP-1-derived macrophages (MTT assay); assay type: cell-based; details: human, THP-1-derived macrophages (PMA-differentiated), value or interval
Method: The THP-1 cell line, a human leukemia line (ATCC® TIB-202™), was cultured in RPMI-1640 medium supplemented with 10% heat-inactivated fetal bovine serum (FBS), 2 mM. L-Glutamine, 100 IU mL^−1 penicillin/streptomycin, and 20 mM HEPES. The cells were maintained in a humidified incubator at 37 °C with 5% CO2. Subculturing was performed every three days, using 20 mL of media at a concentration of 2 × 10^5 cells per mL in a T75 flask. All cell culture reagents were purchased from Lonza Bioscience (Morrisville, NC).
The cytotoxicity of the compounds on THP-1-derived macrophages was evaluated using the colorimetric MTT assay (3-(4,5-dimethylthiazol-2-yl)-2,5-diphenyltetrazolium bromide), as described in Magoulas et al. (2021).[28] THP-1 cells were suspended in complete RPMI medium at a density of 1 × 10^6 cells per mL, and 100 μL of this suspension was seeded into each well of a 96-well plate. The cells were differentiated into macrophages by adding 40 ng mL^−1 of phorbol-myristate 13-acetate (PMA, Sigma, Saint Louis, MI, USA) for 24 hours, followed by replacement with fresh medium for an additional 24 hours. Subsequently, the cells were incubated with 100 μL of various compounds, diluted in complete RPMI medium, at concentrations ranging from 100 to 12.5 μM. Each condition was tested in triplicate. After 72 hours of incubation at 37 °C with 5% CO2, the medium was removed, and 200 μL of a 0.5 mg mL^−1 MTT solution, diluted in RPMI, was added to each well. The plates were incubated for an additional 4 hours. Following this incubation, 160 μL of the medium was removed and replaced with 160 μL of 2-propanol. Absorbance was measured at 570 nm using a Synergy 2 Multi-Mode Reader (Biotek, Winooski, VT, USA). Cytotoxicity was determined by presenting the CC50 (the concentration of the drug that reduces cell viability by 50%) interval or by calculating the CC50 value through non-linear regression analysis using GraphPad Prism version 8.1.1 for Windows (GraphPad Software, San Diego, CA, USA). The results represent the average of at least three independent experiments.

`O=C(Cc1ccc(C23CC4CC(CC(C4)C2)C3)cc1)NCCCn1cnc([N+](=O)[O-])n1` [6e, 2-[4-(1-Adamantyl)phenyl]-N-[3-(3-nitro-1H-1,2,4-triazol-1-yl)propyl]acetamide] and `O=C(Cc1ccc(C23CC4CC(CC(C4)C2)C3)cc1)NCCn1cnc([N+](=O)[O-])n1` [6b, 2-[4-(1-Adamantyl)phenyl]-N-[2-(3-nitro-1H-1,2,4-triazol-1-yl)ethyl]acetamide] fall in the same range of CC50 at 72 h: 50 to 100 µM for the first, 50 to 100 µM for the second.

In the case of `O=C(CCc1ccc(C23CC4CC(CC(C4)C2)C3)cc1)NCCn1cnc([N+](=O)[O-])n1` [6c, 3-[4-(1-Adamantyl)phenyl]-N-[2-(3-nitro-1H-1,2,4-triazol-1-yl)ethyl]propanamide], the CC50 at 72 h is reported as over 100 µM.
